From US20180251431A1 (VERTEX PHARMACEUTICALS INCORPORATED, priority 2016, published 2018)
Where two headings read alike, the source gives them in different places.

Columns and labels:
HEK293 cells = assay: HEK293 VLCFA-LPC IC50 determination (13C-labeled C26:0 LPC by UHPLC/MS); assay type: cell-based, human; settings: Homo sapiens
Outline: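 Suspension HEK293 cells (final 0.5 million/mL after mixing with equal volume) incubated 48 hours with compound plus 13C-acetate (1.0 mg/mL in added media), shaking at 37° C. Lipids extracted with hexane/isopropanol or methanol, C13:0 LPC standard. UHPLC/MS of 13C-labeled C26:0 LPC (638.500/104.100 m/z); IC50 by four-parameter fit.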

[1] = Metabolic intrinsic clearance in human hepatocytes; assay type: in vitro ADME; settings: cryopreserved hepatocytes in suspension, pH 7.5, 0.5 million cells/mL, incubation for 4 hours
Protocol: (§1) The metabolic intrinsic clearance (CLint) of Compound 87 was determined in human, monkey, dog, rat, and mouse hepatocytes. Cryopreserved human hepatocytes (Lot Hue50c), monkey hepatocytes (cynomolgus; Lot Cy328), dog hepatocytes (beagle, Lot Db235), rat hepatocytes (Sprague Dawley; NNH), and mouse hepatocytes (CD-1; Lot Mc522) were obtained from ThermoFisher (Paisley, UK). In separate experiments, compound 87 (1 μM) was incubated with hepatocytes from each species (0.5 million cells/mL, suspension) in Dulbecco's Modified Eagle's Medium (DMEM) supplemented with 4-(2-Hydroxyethyl)piperazine-1-ethanesulfonic acid (HEPES, 9 mM) and fructose (2.2 mM) (pH 7.5). Samples were quenched with acetonitrile and analyzed by LC-MS/MS. The mean CLint for Compound 87 in human, monkey, dog, rat, and mouse hepatocytes after incubation for 4 hours was determined to be ≤2.5, ≤2.5, 7.2, 23.6 and 10.7 μL/min/million cells. Based on these date, Compound 87 was low to moderately metabolized in hepatocytes in mouse, rat, dog, monkey, and human, and the rank order of stability at […] was approximately human>monkey>dog>mouse>rat. […] The metabolic stability of Compound 87 was not expected.

[2] = Metabolic intrinsic clearance in monkey hepatocytes; assay type: in vitro ADME, cynomolgus monkey; settings: cryopreserved hepatocytes in suspension, pH 7.5, 0.5 million cells/mL, incubation for 4 hours
Protocol: as §1

[3] = Metabolic intrinsic clearance in rat hepatocytes; assay type: in vitro ADME; settings: Sprague Dawley, cryopreserved hepatocytes in suspension, pH 7.5, 0.5 million cells/mL, incubation for 4 hours
Protocol: as §1

[4] = Metabolic intrinsic clearance in mouse hepatocytes; assay type: in vitro ADME, CD-1 mouse; settings: CD-1, cryopreserved hepatocytes in suspension, pH 7.5, 0.5 million cells/mL, incubation for 4 hours
Protocol: as §1

For `O=C(Nc1ccn(-c2ccnc(F)c2)n1)C1(c2ccccc2F)CC1` [Compound 87, 1-(2-fluorophenyl)-N-[1-(2-fluoro-4-pyridyl)pyrazol-3-yl]cyclopropanecarboxamide], the IC50 (HEK293 cells; HEK293, 48 h, HEK293, half maximal reduction in C26:0 LPC, about 48 hours, read-out: IC50) was 0.008 µM, the IC50 (HEK293 cells; HEK293, HEK293 cells, average of one or more replicates, read-out: Average HEK293 IC50) was 0.013 µM and the hepatocyte CLint at 1 μM [1] was no more than 2.5 µL/min/1e6 cells. The hepatocyte CLint at 1 μM [2] was no more than 2.5 µL/min/1e6 cells, the hepatocyte CLint at 1 μM [3] was 23.6 µL/min/1e6 cells and the hepatocyte CLint at 1 μM [4] was 10.7 µL/min/1e6 cells.
